For one assay, the system named is HCT116. The experiment in a line: Combination screen CRC cell lines (CellTiter-Glo). Type of assay: cell-based, human. The conditions noted are these: for IC50: 3 days; for % max. inhibition (mono): first figure of mono/combo; for % max. inhibition (combo): second figure of mono/combo. As to the method: (§1) A panel of CRC and PDAC cell lines was assessed and combination partners of potential clinical relevance for the respective tumor indications were used for evaluation of combination effects (CRC: irinotecan, oxaliplatin, 5-FU, MDM2 inhibitor (RG7388), Bcl-2 inhibitor (ABT199); PDAC: Abraxane, Paclitaxel, Gemcitabine, Doxorubicin, MDM2i (RG7388), Bc12i (ABT199), Bortezomib, Cyclopamine, PARP inhibitor (PJ34)).
(§2) Cells were seeded (numbers vary depending on the cell line) in black 96-well microplate with clear, flat bottom and incubated overnight at 37° C. and 5% CO2. After checking the adherence/confluence of cells, the medium was removed and 100 μl of fresh medium containing the corresponding compound was added to each well. A sequential dilution series (1:4) of 8 concentrations per compound (n=3) were used. Corresponding DMSO concentration and media alone were used as controls.
(§3) After incubation for 3 days at 37° C. and 5% CO2, 100 μl per well CellTiter-Glo reagent (Promega) was added to the plate. Luminescence was measured after 30 minutes agitation at room temperature. IC50-values were calculated with XL-Fit software. Each experiment with one compound was repeated at least twice.
(§4) Cells were seeded (numbers vary depending on the cell line) in black 96-well microplate with clear, flat bottom and incubated overnight at 37° C. and 5% CO2. After checking the adherence/confluence of cells, the medium was removed and 100 μl of fresh medium containing the corresponding compound or combination was added to each well.
(§5) A sequential 1:3 dilution series of 9 concentrations of Drozitumab/anti-human-Fc was done on a 96-well PP-V-bottom microplate (n=6). […] 25 μl/well of the Drozitumab/anti-human-Fc series were then transferred to the cells.
(§6) After incubation for 3 days at 37° C. and 5% CO2 100 μl per well CellTiter-Glo reagent (Promega) were given to the plates. Luminescence was measured after 30 minutes agitation at room temperature.
(§7) For each concentration of Drozitumab/anti-human-Fc and Drozitumab/anti-human-Fc+compound triplicates were done on the same plate and each experiment was repeated at least twice.

The test system of a further assay is SW480. The experiment in a line: Combination screen CRC cell lines (CellTiter-Glo). Format: cell-based. The conditions noted are these: for % max. inhibition (mono): first figure of mono/combo; for % max. inhibition (combo): second figure of mono/combo; for IC50: 3 days. How it is done:
as §1, §2, §3, §4, §5, §6, §7

For another assay, the system named is HT29. Briefly: Combination screen CRC cell lines (CellTiter-Glo). The conditions noted are these: for IC50: 3 days; for % max. inhibition (mono): first figure of mono/combo; for Fold change IC50 (DR5 ab mono vs combo) / % max. inhibition (combo): n.s. = not significant; for % max. inhibition (combo): second figure of mono/combo. Format: cell-based. How it is done:
as §1, §2, §3, §4, §5, §6, §7
(ATP-based viability assays read luminescence as a measure of living cells.)

A further assay concerns Aspc1. The experiment in a line: Combination screen PDAC cell lines (CellTiter-Glo). Type of assay: cell-based. Conditions: for IC50: agent alone, 3 days, read-out: IC50 monotherapy; for % max. inhibition (mono): first figure of mono/combo. How it is done:
as §1, §2, §3, §4, §5, §6, §7

Another assay has as its system Panc1. The experiment in a line: Combination screen PDAC cell lines (CellTiter-Glo). Type of assay: cell-based. The conditions noted are these: for IC50: 3 days; for % max. inhibition (mono): first figure of mono/combo. As to the method:
as §1, §2, §3, §4, §5, §6, §7

Another assay relates to Bxpc3. Briefly: Combination screen PDAC cell lines (CellTiter-Glo). The conditions noted are these: for IC50: agent alone, 3 days, read-out: IC50 monotherapy. Type of assay: cell-based. As to the method: as §1, §2, §3, §4, §5, §6, §7
For the next assay, the system named is Capan2. The experiment in a line: Combination screen PDAC cell lines (CellTiter-Glo). Format: cell-based. The conditions noted are these: for % max. inhibition (mono): first figure of mono/combo. How it is done: as §1, §2, §3, §4, §5, §6, §7
Where [1] appears, read: DR5 ab + Fc titrated in combination with 1x IC50 of the named compound, read-out: IC50 combo.
The mark [2] stands for this setting: agent alone, read-out: IC50 monotherapy.
Where [3] appears, read: Aspc1, second figure of mono/combo, n.s. = not significant.
The mark [4] stands for this setting: Homo sapiens, PANC-1, 72 h, Panc1, DR5 ab + Fc titrated in combination with 1x IC50 of the named compound, read-out: IC50 Combo.
Setting [5] is: Homo sapiens, PANC-1, 72 h, Panc1, agent alone, read-out: IC50 monotherapy.
Setting [6] is: Panc1, second figure of mono/combo, n.s. = not significant.
[7] abbreviates: Bxpc3, first figure of mono/combo.
Setting [8] is: Bxpc3, second figure of mono/combo, n.s. = not significant.
The mark [9] stands for this setting: Homo sapiens, BXPC-3, 72 h, Bxpc3.
Where [10] appears, read: Capan2, second figure of mono/combo, n.s. = not significant.
Setting [11] is: Homo sapiens, HT-29, 72 h, agent alone, read-out: IC50 monotherapy.

Read-outs that look alike come from different tables or passages of the source.

In general, IC50 refers to the concentration needed to halve the response being measured. On to `O=C1[O][Pt]2([NH][C@@H]3CCCC[C@H]3[NH]2)[O]C1=O` [Oxaliplatin, [(1R,2R)-cyclohexane-1,2-diamine](ethanedioato-O,O′)platinum(II)], for which the “Fold change IC50 (DR5 ab mono vs combo)” value is listed as 4 with HCT116, “n.s” in the assay on SW480 (n.s. = not significant) and 13 with HT29. For the same compound, the IC50 was 0.04 nM with HCT116 (setting [1]), 5000 nM with HCT116 (setting [2]), 0.2 nM in the assay on HT29 (setting [1]) and 5000 nM in the assay on HT29 (setting [2]). The “% max. inhibition (mono)” value in the assay with HCT116 came out at 20%; with SW480, 60%; in the assay on HT29, 30%. In addition, the “% max. inhibition (combo)” value with HCT116 is recorded as 90%; with SW480 it was 80%; with HT29, 90%.

Consider “DR5 ab + Fc: DR5 antibody (drozitumab) + crosslinking via an anti-Fc antibody, surrogate for FAP crosslinking”, for which the IC50 worked out at 5 nM with Aspc1 (Aspc1); 262 nM in the assay with Panc1 (Panc1, agent alone, read-out: IC50 monotherapy); 3 nM with Bxpc3 (Bxpc3); 0.15 nM with HCT116 (setting [2]); 140 nM in the assay on SW480 (setting [2]); 2.5 nM in the assay on HT29 (setting [2]).

In the case of `CC(=O)O[C@H]1C(=O)[C@@]2(C)[C@H]([C@H](OC(=O)c3ccccc3)[C@]3(O)C[C@H](OC(=O)[C@H](O)[C@@H](NC(=O)c4ccccc4)c4ccccc4)C(C)=C1C3(C)C)[C@]1(OC(C)=O)CO[C@@H]1C[C@@H]2O` [Paclitaxel, 5β,20-Epoxy-1,2α,4,7β,10β,13α-hexahydroxytax-11-en-9-one 4,10-diacetate 2-benzoate 13-ester with (2R,3S)-N-benzoyl-3-phenylisoserine], the “% max. inhibition (mono)” value with Aspc1 (Aspc1) was found to be 30%; in the assay on Panc1 (Panc1), 50%; in the assay on Bxpc3 (setting [7]) it was 80%; in the assay with Capan2 (Capan2), 50%. In addition, the “Fold change IC50 (DR5 ab mono vs combo)” value in the assay on Aspc1 (Aspc1, n.s. = not significant) is 31; in the assay with Panc1 (Panc1, n.s. = not significant), 8733; with Bxpc3 (Bxpc3, n.s. = not significant), 1. Moreover, the “% max. inhibition (combo)” value came out at 75% in the assay on Aspc1 (setting [3]), 70% in the assay with Panc1 (setting [6]), 100% with Bxpc3 (setting [8]) and 80% in the assay on Capan2 (setting [10]). The IC50 is 0.03 nM with Panc1 (setting [4]), 15 nM in the assay on Panc1 (setting [5]) and 250 nM with Bxpc3 (setting [9]).

As to `CCc1c2c(nc3ccc(OC(=O)N4CCC(N5CCCCC5)CC4)cc13)-c1cc3c(c(=O)n1C2)COC(=O)[C@]3(O)CC` [Irinotecan, (S)-4,11-diethyl-3,4,12,14-tetrahydro-4-hydroxy-3,14-dioxo1H-pyrano[3′,4′:6,7]-indolizino[1,2-b]quinolin-9-yl-[1,4′bipiperidine]-1′-carboxylate], the “% max. inhibition (mono)” value in the assay on HCT116 was determined as 60%; in the assay on SW480 it was 60%; in the assay with HT29, 40%. For the same compound, the entries for the “% max. inhibition (combo)” value in the assay with HCT116, with SW480 and in the assay with HT29 were 95%, 95% and 100%, respectively. The “Fold change IC50 (DR5 ab mono vs combo)” value is listed as “n.s” in the assay with SW480 (n.s. = not significant) and 83 in the assay on HT29. Also, the concentration for half-maximal inhibition (IC50) with HT29 (setting [11]) is 9000 nM.

Take `CN(C)CC(=O)Nc1ccc2[nH]c(=O)c3ccccc3c2c1.Cl` [PARPi (PJ34)]: the “% max. inhibition (mono)” value in the assay with Aspc1 (Aspc1) is given as 10%. Besides, the “Fold change IC50 (DR5 ab mono vs combo)” value in the assay on Aspc1 (Aspc1, n.s. = not significant) is 17; in the assay on Panc1 (Panc1, n.s. = not significant), “n.s”; in the assay on Bxpc3 (Bxpc3, n.s. = not significant), 10. The “% max. inhibition (combo)” value in the assay on Aspc1 (setting [3]) is reported as 70%; with Panc1 (setting [6]) it was “n.s”; in the assay with Bxpc3 (setting [8]) it was “n.s”; in the assay on Capan2 (setting [10]) it was “n.s”.

As for `O=c1[nH]cc(F)c(=O)[nH]1` [5-FU, 5-Fluoro-1H,3H-pyrimidine-2,4-dione], the IC50 is 2500 nM in the assay on HCT116 (Homo sapiens, HCT-116, 72 h, agent alone, read-out: IC50 monotherapy); 0.002 nM in the assay with SW480 (Homo sapiens, 72 h, DR5 ab + Fc titrated in combination with 1x IC50 of the named compound, n.s. = not significant, read-out: IC50 combo); 2500 nM in the assay with HT29 (setting [11]). Further, the “% max. inhibition (mono)” value with HCT116 is reported as 60%; in the assay with SW480, 50%; in the assay with HT29, 50%. For the same compound, the “% max. inhibition (combo)” value in the assay on HCT116 worked out at 90%; in the assay with SW480, 65%; in the assay on HT29, 85%. The “Fold change IC50 (DR5 ab mono vs combo)” value with SW480 (n.s. = not significant) amounted to 70000; in the assay with HT29 it was 25.

For the compound `Nc1ccn([C@@H]2O[C@H](CO)[C@@H](O)C2(F)F)c(=O)n1` [Gemcitabine, 4-amino-1-(2-deoxy-2,2-difluoro-β-D-erythro-pentofuranosyl)pyrimidin-2(1H)-on], the “% max. inhibition (mono)” value with Aspc1 (Aspc1) is recorded as 25%; with Panc1 (Panc1), 50%; in the assay on Bxpc3 (setting [7]), 45%; in the assay on Capan2 (Capan2) it was 35%. Besides, the “Fold change IC50 (DR5 ab mono vs combo)” value is 50 in the assay on Aspc1 (Aspc1, n.s. = not significant); 5 in the assay with Panc1 (Panc1, n.s. = not significant); 15 in the assay with Bxpc3 (Bxpc3, n.s. = not significant). The “% max. inhibition (combo)” value with Aspc1 (setting [3]) is 55%; in the assay on Panc1 (setting [6]), 75%; in the assay on Bxpc3 (setting [8]), 80%; in the assay on Capan2 (setting [10]), 60%. In addition, the IC50 in the assay on Aspc1 (Homo sapiens, 72 h, Aspc1) turned out to be 2000 nM; with Panc1 (setting [4]), 52.9 nM; in the assay on Panc1 (setting [5]), 2000 nM; in the assay on Bxpc3 (setting [9]), 30 nM.

Regarding `CC1=C2C[C@H]3[C@@H](CC=C4C[C@@H](O)CC[C@@]43C)[C@@H]2CC[C@]12O[C@@H]1C[C@H](C)CN[C@H]1[C@H]2C` [Cyclopamine, (3β,23R)-17,23-Epoxyveratraman-3-ol], the “% max. inhibition (combo)” value is “n.s” in the assay with Aspc1, “n.s” with Panc1, 65/95% with Bxpc3 and “n.s” in the assay with Capan2. The “% max. inhibition (mono)” value with Bxpc3 is listed as 65/95%.

Turning to `CC(C)C[C@H](NC(=O)[C@H](Cc1ccccc1)NC(=O)c1cnccn1)B(O)O` [Bortezomib, [(1R)-3-methyl-1-[(2S)-3-phenyl-2-(pyrazin-2-ylformamido)propanamido]butyl]boronic acid], the “Fold change IC50 (DR5 ab mono vs combo)” value in the assay on Aspc1 (Aspc1, n.s. = not significant) is listed as “n.s”; in the assay with Panc1 (Panc1, n.s. = not significant), “n.s”; in the assay on Bxpc3 (Bxpc3, n.s. = not significant) it was 8. In addition, the “% max. inhibition (combo)” value in the assay with Aspc1 (setting [3]) is recorded as “n.s”; in the assay with Panc1 (setting [6]), “n.s”; with Bxpc3 (setting [8]), 100%; with Capan2 (setting [10]) it was 95%. Further, the IC50 in the assay with Aspc1 (Homo sapiens, 72 h, Aspc1) was found to be 30 nM; in the assay with Panc1 (setting [5]) it was 8.5 nM; in the assay on Bxpc3 (setting [9]) it was 10 nM; in the assay with Capan2 (Homo sapiens, Capan-2, 72 h, Capan2, agent alone, 3 days, read-out: IC50 monotherapy), 20 nM. Also, the “% max. inhibition (mono)” value with Bxpc3 (setting [7]) is given as 60%; in the assay with Capan2 (Capan2), 40%.
